Assays:
[1] = target: T1, hormone-sensitive lipase (HSL) (Rattus norvegicus, UniProt P15304); assay: HSL enzyme assay (NAG assay) with partially purified HSL; type: biochemical; details: inhibition of HSL enzymatic activity; partially purified HSL from rat fat cells; NAG substrate; 30° C., 60 min
T1 construct: Isolated rat fat cells are obtained from epididymal adipose tissue from untreated male rats; from tissue; host or cells: rat (Wistar) epididymal adipose tissue, isolated fat cells
T1 sequence (P15304 1-768 isoform P15304-2): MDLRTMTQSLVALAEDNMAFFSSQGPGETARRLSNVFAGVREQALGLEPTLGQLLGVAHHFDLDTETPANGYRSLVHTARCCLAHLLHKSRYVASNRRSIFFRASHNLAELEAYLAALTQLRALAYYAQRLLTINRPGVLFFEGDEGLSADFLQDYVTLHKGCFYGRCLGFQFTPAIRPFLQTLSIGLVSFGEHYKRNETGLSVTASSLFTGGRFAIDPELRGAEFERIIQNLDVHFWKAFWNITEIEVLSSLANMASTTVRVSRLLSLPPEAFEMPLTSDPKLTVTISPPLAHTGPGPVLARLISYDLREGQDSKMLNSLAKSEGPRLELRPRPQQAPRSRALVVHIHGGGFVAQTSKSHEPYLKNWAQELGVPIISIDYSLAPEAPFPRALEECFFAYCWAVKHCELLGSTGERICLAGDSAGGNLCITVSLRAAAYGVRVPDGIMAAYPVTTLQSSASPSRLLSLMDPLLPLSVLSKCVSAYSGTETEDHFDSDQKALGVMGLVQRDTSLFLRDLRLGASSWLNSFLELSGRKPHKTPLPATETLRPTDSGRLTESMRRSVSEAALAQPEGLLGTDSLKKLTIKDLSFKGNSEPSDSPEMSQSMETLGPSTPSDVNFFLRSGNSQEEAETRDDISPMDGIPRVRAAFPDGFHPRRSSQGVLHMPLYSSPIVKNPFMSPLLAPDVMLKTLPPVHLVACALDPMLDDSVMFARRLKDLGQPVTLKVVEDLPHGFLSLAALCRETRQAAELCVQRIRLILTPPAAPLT
Method: The effect of the compounds of the invention of the formula I is tested in the following enzyme assay system: […]
Preparation of the Partially Purified HSL:
Isolated rat fat cells are obtained from epididymal adipose tissue from untreated male rats (Wistar, 220-250 g) by collagenase treatment in accordance with published methods (e.g. S, Nilsson et al., Anal. Biochem. 158, 1986, 399-407; G. Fredrikson et al., J. Biol. Chem. 256, 1981, 6311-6320; H. Tornquist et al., J. Biol. Chem. 251, 1976, 813-819). The fat cells from 10 rats are washed three times by flotation with 50 ml of homogenization buffer ([…] Tris/HCl, pH 7.4, 0.25 M sucrose, 1 mM EDTA, 1 mM DTT, 10 μg/ml leupeptin, 10 μg/ml antipain, 20 μg/ml pepstatin) each time and finally taken up in 10 ml of homogenization buffer. The fat cells are homogenized in a Teflon-in-glass homogenizer (Braun-Melsungen) by 10 strokes at 1500 rpm and 15° C. The homogenate is centrifuged (Sorvall SM24 tubes, 5000 rpm, 10 min, 4° C.). The subnatant between the layer of fat at the top and the pellet is removed and the centrifugation is repeated. The subnatant resulting therefrom is centrifuged again (Sorvall SM24 tubes, 20 000 rpm, 45 min, 4° C.). […] After incubation at 4° C. for 60 min (shaking at intervals of 15 min), the mixture is centrifuged (Sorvall SM24 tubes, 3000 rpm, 10 min, 4° C.). The supernatant is adjusted to pH 5.2 by adding glacial acetic acid and is incubated at 4° C. for 30 min. The precipitates are collected by centrifugation (Sorvall SS34, 12 000 rpm, 10 min, 4° C.) and suspended in 2.5 ml of 20 mM Tris/HCl, pH 7.0, 1 mM EDTA, 65 mM NaCl, 13% sucrose, 1 mM DTT, 10 μg/ml leupeptin/pepstatin/antipain. The suspension is dialyzed against 25 mM Tris/HCl, pH 7.4, 50% glycerol, 1 mM DTT, 10 μg/ml leupeptin, pepstatin, antipain at 4° C. overnight and then loaded onto a hydroxiapatite column (0.1 g per 1 ml of suspension, equilibrated with 10 mM potassium phosphate, pH 7.0, 30% glycerol, 1 mM DTT). The column is washed with four volumes of equilibration buffer at a flow rate of 20 to 30 ml/h. The HSL is eluted with one volume of equilibration buffer containing 0.5 M potassium phosphate and then dialyzed (see above) and concentrated 5- to 10-fold by ultrafiltration (Amicon Diaflo PM 10 Filter) at 4° C. The partially purified HSL can be stored at −70° C. for 4 to 6 weeks.
Preparation of NAG (NBD Monoacyl Glyceride) Substrate:
6 mg of phosphatidylcholine and 6 mg of phosphatidylinositol are each dissolved in 1 ml of chloroform. 10 mg of NAG are dissolved in 1 ml of chloroform. Two parts of phosphatidylinositol solution (e.g. 83.5 μl) and one part of phosphatidylcholine solution (e.g. 41.5 μl) and 100 μl of NAG solution are pipetted together into plastic scintillation vessels (final concentration in the assay: 0.0375 mg of phospholipid/ml; 0.05 mg/NAG/ml). The chloroform (225 μl total volume) is completely removed by passing a stream of N2 over it. The dried substrate can be stored at 4° C. for up to 3 days. To prepare the phospholipid vesicles/micelles with intercalated NAG (on the day of the assay), the dried substrate is taken up in 20 ml of assay buffer (25 mM Tris/HCl, pH 7.4; 150 mM NaCl) and two ultrasound treatments carried out with an ultrasonic probe (Branson Sonifier Type II, standard microtip): 1st treatment setting 2, 2×1 min, in between 1 min on ice each time; 2nd treatment setting 4, 2×1 min, in between 1 min on ice each time. During this procedure, the color of the substrate solution changes from yellow (extinction maximum 481 nm) to red (extinction maximum 550 nm) owing to intercalation of NAG between the phospholipid molecules in the vesicles/micelles. Before use as substrate (within the next 2 h), the solution is incubated on ice for 15 min.
The assay is carried out in 1.5 ml Eppendorf vessels or 96-well plates at 30° C. for 60 min. […]

melting point | IC50 [1] | Structure (SMILES)
 | 30 nM | CCCCN(CCCC)S(=O)(=O)c1cc(S(=O)(=O)N=CN(C)C)c(Cl)cc1N [Example 28, 2-Amino-4-chloro-5-dimethylaminomethylenesulfamoyl-N-dibutylbenzenesulfonamide]
126 °C | 700 nM | CC(C)CN(CC(C)C)S(=O)(=O)c1cc(S(=O)(=O)N=CN(C)C)c(Cl)cc1N [Example 29, 2-Amino-4-chloro-5-dimethylaminomethylenesulfamoyl-N-diisobutylbenzenesulfonamide]
100 °C | 1 nM | CC1CC(NS(=O)(=O)c2cc(S(=O)(=O)N=CN(C)C)c(Cl)cc2N)CC(C)(C)C1 (stereo not shown) [Example 32]
90 °C | 200 nM | C=CCN(C1CCCCC1)S(=O)(=O)c1cc(S(=O)(=O)N=CN(C)C)c(Cl)cc1N [Example 33, 2-Amino-4-chloro-5-dimethylaminomethylenesulfamoyl-N-cyclohexyl-N-allyl-benzenesulfonamide]
122 °C (dec.) |  | CC(C)N(C1CCCCC1)S(=O)(=O)c1cc(S(=O)(=O)N=CN(C)C)c(Cl)cc1N [Example 34, 2-Amino-4-chloro-5-dimethylaminomethylenesulfamoyl-N-cyclohexyl-N-isopropyl-benzenesulfonamide]
110 °C |  | CCCCCCCCNS(=O)(=O)c1cc(S(=O)(=O)N=CN(C)C)c(Cl)cc1N [Example 38, 2-Amino-4-chloro-5-dimethylaminomethylenesulfamoyl-N-octylbenzenesulfonamide]
> 185 °C (dec.) | 700 nM | CN(C)C=NS(=O)(=O)c1cc(S(=O)(=O)NC2CCCCC2)c(N)cc1C(F)(F)F [Example 48, 2-Amino-4-trifluoromethyl-5-dimethylaminomethylenesulfamoyl-N-cyclohexyl-benzenesulfonamide]

Second part, the compound before the results:

Structure (SMILES) | melting point | IC50 [1]
COc1ccc(S(=O)(=O)N=CN(C)C)cc1CN1CC(C)CC(C)C1 (stereo not shown) [Example 8, N-Dimethylaminomethylene-4-methoxy-3-[(3,5-dimethylpiperidino)methyl]benzenesulfonamide] | 89 °C | 
CC1CC(NC(=O)c2ccc(Cl)c(S(=O)(=O)N=CN(C)C)c2)CC(C)(C)C1 (stereo not shown) [Example 10, 4-Chloro-3-(dimethylaminomethylenesulfamoyl)-N-(3,3,5-trimethylcyclohexyl)benzamide] | 180 °C | 
CN(C)C=NS(=O)(=O)c1cc(C(=O)NC2CC(C)(C)NC(C)(C)C2)ccc1Cl [Example 11, 4-Chloro-3-(dimethylaminomethylenesulfamoyl)-N-(2,2,6,6-tetramethylpiperidin-4-yl)-benzamide] | 192 °C | 
Cc1cc(C)cc(NC(=O)c2ccc(Cl)c(S(=O)(=O)N=CN(C)C)c2)c1 [Example 12, 4-Chloro-3-(dimethylaminomethylenesulfamoyl)-N-(3,5-dimethylphenyl)benzamide] | 216 °C | 
CN(C)C=NS(=O)(=O)c1cc(C(=O)NCc2ccccc2Cl)ccc1Cl [Example 16, 4-Chloro-3-(dimethylaminomethylenesulfamoyl)-N-(2-chlorophenylmethyl)benzamide] | 167 °C | 
Cc1cc(C)cc(OCc2ccc(Cl)c(S(=O)(=O)N=CN(C)C)c2)c1 [Example 19, 6-Chloro-N-dimethylaminomethylene-3-[(3,5-dimethylphenoxy)methyl]benzenesulfonamide] | 137 °C | 400 nM
CC1CC(N(Cc2ccc(Cl)c(S(=O)(=O)N=CN(C)C)c2)S(C)(=O)=O)CC(C)(C)C1 (stereo not shown) [Example 21, 6-Chloro-N-dimethylaminomethylene-3-[(N-(3,3,5-trimethylcyclohexyl)-N-methylsulfonylamino)methyl]benzenesulfonamide] |  | 500 nM
CC1CC(NS(=O)(=O)c2ccc(Cl)c(S(=O)(=O)N=CN(C)C)c2)CC(C)(C)C1 (stereo not shown) [Example 23, 6-Chloro-N-dimethylaminomethylene-3-(3,3,5-trimethylcyclohexylaminosulfonyl]benzenesulfonamide] |  | 150 nM
CN(C)C=NS(=O)(=O)c1cc(S(=O)(=O)N2CCCC(C)(C)C2)ccc1Cl [Example 24, 6-Chloro-N-dimethylaminomethylene-3-(3,3-dimethylpiperidinosulfonyl]-benzenesulfonamide] | 123 °C | 
CC1CC(NS(=O)(=O)c2cc(S(=O)(=O)N=CN(C)C)c(C(F)(F)F)cc2N)CC(C)(C)C1 (stereo not shown) [Example 26, 2-Amino-4-trifluoromethyl-5-dimethylaminomethylenesulfamoyl-N-(3,3,5-trimethyl-cyclohexyl)benzenesulfonamide] | > 165 °C (dec.) | 

From US7781613B2, “Substituted N-aminomethylene sulfonamides, production and use thereof as medicaments” (Sanofi-Aventis, priority 2005, dated 2010)
